The record followed here is patent publication US7329634B2, “3-Phenyl substituted 3-substituted-4ketolactams and ketolactones” (Bayer CropScience AG, priority 2003, dated 2008).

SMILES strings stand for the structures.

One test has as its system Meloidogyne incognita. In words: Meloidogyne test. The conditions noted are these: 20 ppm; nematicidal action by formation of galls on lettuce roots; 100% = no galls. The format is in vivo. The protocol: • Solvents: 78 parts by weight of acetone • 1.5 parts by weight of dimethylformamide • Emulsifier: 0.5 part by weight of alkylaryl polyglycol ether
To produce a suitable preparation of active compound, 1 part by weight of active compound is mixed with the stated amounts of solvent and emulsifier, and the concentrate is diluted with water to the desired concentration.
Vessels are filled with sand, solution of active compound, Meloidogyne incognita egg/larvae suspension and lettuce seeds. The lettuce seeds germinate and the plants develop. On the roots, galls develop.
After the desired period of time, the nematicidal action is determined in % by the formation of galls. 100% means that no galls have been found; 0% means that the number of galls on the treated plants corresponds to that of the untreated control.

In test [1] the test system is greenhouse red spider mite (Tetranychus urticae). Description: Tetranychus test (OP-resistant/spray treatment). The conditions noted are these: 100 ppm; spray treatment of bean leaf discs (Phaseolus vulgaris); OP-resistant. The format is in vivo. Here is the method: Tetranychus Test (OP-Resistant/Spray Treatment)
• Solvents: 78 parts by weight of acetone • 1.6 parts by weight of dimethylformamide • Emulsifier: 0.5 part by weight of alkylaryl polyglycol ether
To produce a suitable preparation of active compound, 1 part by weight of active compound is mixed with the stated amounts of solvent and emulsifier, and the concentrate is diluted with emulsifier-containing water to the desired concentration.
Discs of the leaves of beans (Phaseolus vulgaris) which are infested by all stages of the greenhouse red spider mite (Tetranychus urticae) are sprayed with a preparation of active compound of the desired concentration.
After the desired period of time, the activity in % is determined. 100% means that all spider mites have been killed; 0% means that none of the spider mites have been killed.

As to `CCc1cc(Br)cc(Br)c1C1(Cl)C(=O)NC(C)(C)C1=O` (centres unmarked) [Ex. I-1-1], in the test with Meloidogyne incognita, the “Effect in % after 14d” value came to 100%. The “Kill rate in % after 4d” value in test [1] came out at 80%.
